Measurements: patent US9999222B2, “Herbicidal combination comprising azines” (BASF SE, priority 2014, dated 2018)
Read-outs that look alike come from different tables or passages of the source.

Key:
Experiment in all cases: Greenhouse test, pre-emergence treatment
[1] = test system: ABUTH; assay type: in vivo, Abutilon theophrasti; conditions: Abutilon theophrasti, 480 h
Text: (§1) The culture containers used were plastic flowerpots containing loamy sand with approximately 3.0% of humus as the substrate. The seeds of the test plants were sown separately for each species.
(§2) For the pre-emergence treatment, the active ingredients, which had been suspended or emulsified in water, were applied directly after sowing by means of finely distributing nozzles. The containers were irrigated gently to promote germination and growth and subsequently covered with transparent plastic hoods until the plants had rooted. This cover caused uniform germination of the test plants, unless this had been impaired by the active ingredients.
(§3) Depending on the species, the plants were kept at 10-25° C. or 20-35° C., respectively.
(§4) The test period extended over 2 to 4 weeks. During this time, the plants were tended, and their response to the individual treatments was evaluated.
(§5) Evaluation was carried out using a scale from 0 to 100. 100 means no emergence of the plants, or complete destruction of at least the aerial moieties, and 0 means no damage, or normal course of growth. A moderate herbicidal activity is given at values of at least 60, a good herbicidal activity is given at values of at least 70, and a very good herbicidal activity is given at values of at least 85.
(§6) The respective stated components a and b, and if appropriate, c were formulated as a 10% by weight strength emulsion concentrate and, with addition of the amount of solvent system, introduced into the spray liquor used for applying the active compound.
(§7) In the examples, the solvent used was water.
(§8) In the examples below, using the method of S. R. Colby (1967) “Calculating synergistic and antagonistic responses of herbicide combinations”, Weeds 15, p. 22ff., the value E, which is expected if the activity of the individual active compounds is only additive, was calculated. E=X+Y−(X·Y/100) where • X=percent activity using active compound a at an application rate A; • Y=percent activity using active compound b at an application rate B; • E=expected activity (in %) by a+b at application rates A+B.
(§9) If the value found experimentally is higher than the value E calculated according to Colby, a synergistic effect is present.

[2] = test system: POLCO; assay type: in vivo, Polygonum convolvulus; conditions: Fallopia convolvulus, pre-emergence, 480 h
Text: as §1, §2, §3, §4, §5, §6, §7, §8, §9

[3] = test system: ANTAR; assay type: in vivo; conditions: Anthemis arvensis, 480 h, 20 DAT, read-out: observed % activity
Text: as §1, §2, §3, §4, §5, §6, §7, §8, §9

[4] = test system: COMBE; assay type: in vivo, Commelina benghalensis; conditions: Commelina benghalensis, pre-emergence, 480 h
Text: as §1, §2, §3, §4, §5, §6, §7, §8, §9

[5] = test system: EPHHL; assay type: in vivo, Euphorbia heterophylla; conditions: Euphorbia heterophylla, pre-emergence, 480 h
Text: as §1, §2, §3, §4, §5, §6, §7, §8, §9

[6] = test system: GALAP; assay type: in vivo, Galium aparine; conditions: Galium aparine, pre-emergence, 480 h
Text: as §1, §2, §3, §4, §5, §6, §7, §8, §9

[7] = test system: GERPU; assay type: in vivo, Geranium pusillum; conditions: Geranium pusillum, pre-emergence, 480 h
Text: as §1, §2, §3, §4, §5, §6, §7, §8, §9

[8] = test system: KCHSC; assay type: in vivo, Kochia scoparia; conditions: Bassia scoparia, pre-emergence, 480 h
Text: as §1, §2, §3, §4, §5, §6, §7, §8, §9

[9] = test system: IPOHE; assay type: in vivo, Ipomoea hederacea; conditions: Ipomoea hederacea, 480 h
Text: as §1, §2, §3, §4, §5, §6, §7, §8, §9

[10] = test system: SIDRH; assay type: in vivo, Sida rhombifolia; conditions: Sida rhombifolia, pre-emergence, 480 h, 20 DAT, read-out: observed % activity
Text: as §1, §2, §3, §4, §5, §6, §7, §8, §9

[11] = test system: CENCY; assay type: in vivo; conditions: 480 h, individual, read-out: observed % activity 20 DAT
[12] = 250 g ai/ha, 20 DAT, read-out: observed % activity
[13] = 500 g ai/ha, 20 DAT, read-out: observed % activity

Cc1ccc(NC(=O)N(C)C)cc1Cl [chlorotoluron] was tested, and the inhibition at 250 g/ha [1, 12] was 0%, the inhibition at 500 g/ha [1, 13] was 0% and the inhibition at 125 g/ha ([1]; ABUTH, individual, use rate 125 g ai/ha, read-out: observed % activity 20 DAT) was 0%. It also gave an inhibition at 250 g/ha ([1]; ABUTH, individual, use rate 250 g ai/ha, read-out: observed % activity 20 DAT) of 0%, an inhibition at 250 g/ha [2, 12] of 0% and an inhibition at 500 g/ha [2, 13] of 20%. The inhibition at 250 g/ha ([2]; POLCO, individual, use rate 250 g ai/ha, read-out: observed % activity 20 DAT) was 0%, the inhibition at 250 g/ha ([3]; 250 g ai/ha) was 45% and the inhibition at 500 g/ha ([3]; 500 g ai/ha) was 45%. For the same molecule, the inhibition at 250 g/ha [4, 12] was 20%, the inhibition at 125 g/ha ([4]; COMBE, individual, use rate 125 g ai/ha, read-out: observed % activity 20 DAT) was 0% and the inhibition at 250 g/ha ([4]; COMBE, individual, use rate 250 g ai/ha, read-out: observed % activity 20 DAT) was 0%. The inhibition at 250 g/ha [5, 12] was 0%, the inhibition at 250 g/ha ([5]; EPHHL, individual, use rate 250 g ai/ha, read-out: observed % activity 20 DAT) was 15% and the inhibition at 500 g/ha [6, 13] was 50%. For the same molecule, the inhibition at 125 g/ha ([6]; GALAP, individual, use rate 125 g ai/ha, read-out: observed % activity 20 DAT) was 25%, the inhibition at 250 g/ha ([6]; GALAP, individual, use rate 250 g ai/ha, read-out: observed % activity 20 DAT) was 30% and the inhibition at 250 g/ha [7, 12] was 25%. It also gave an inhibition at 500 g/ha [7, 13] of 20%, an inhibition at 125 g/ha ([7]; GERPU, individual, use rate 125 g ai/ha, read-out: observed % activity 20 DAT) of 25% and an inhibition at 250 g/ha ([7]; GERPU, individual, use rate 250 g ai/ha, read-out: observed % activity 20 DAT) of 25%. It also gave an inhibition at 250 g/ha [8, 12] of 20%, an inhibition at 500 g/ha [8, 13] of 50% and an inhibition at 125 g/ha ([8]; KCHSC, individual, use rate 125 g ai/ha, read-out: observed % activity 20 DAT) of 15%. For the same molecule, the inhibition at 500 g/ha [9, 13] was 0%, the inhibition at 250 g/ha ([9]; IPOHE, individual, use rate 250 g ai/ha, read-out: observed % activity 20 DAT) was 0% and the inhibition at 250 g/ha ([10]; 250 g ai/ha) was 0%. The inhibition at 500 g/ha ([10]; 500 g ai/ha) was 0%, the inhibition at 125 g/ha ([11]; use rate 125 g ai/ha) was 20% and the inhibition at 250 g/ha ([11]; use rate 250 g ai/ha) was 0%.
